Consider three compounds from ChEMBL document CHEMBL4308884, “Development and characterization of a CNS-penetrant benzhydryl hydroxamic acid class IIa histone deacetylase inhibitor” (Bioorg Med Chem Lett, 2019).

A short description of data set [1]: Kinetic aqueous solubility of the compound. The format is physicochemical. Conditions: buffer; read-out: Kinetic_solubility.
Data set [2] is described as follows: Apparent passive permeability in MDCK cells at 10 uM after 1 hr by LC-MS/MS analysis. The format is ADME, cell-based, Canis lupus familiaris. To be noted: dog; for Papp: mdck, 1 h, 10 µM.

Converted amounts (≈) assume the structure as drawn.

For `O=C(NO)C(c1ccc(-c2nccc(C(F)(F)F)n2)cc1)c1ccccc1F` (stereo unspecified), the solubility kinetic in data set [1] turned out to be 141 µM (≈ 55.2 µg/mL). In data set [2], the Papp – broadly, the rate of passage across a membrane or cell layer, normalised by area and donor concentration – is on record as “Nd(Toxic)”.

As for `Cc1cnc(-c2ccc(C(C(=O)NO)c3ccccc3F)cc2)nc1` (stereo unspecified), the solubility kinetic in data set [1] was determined as 52 µM (≈ 17.5 µg/mL). In addition, the Papp entry in data set [2] was “Nd(Toxic)”.

As to `O=C(NO)C(c1ccc(-c2cnccn2)cc1)c1ccccc1F` (stereo unspecified), the solubility kinetic in data set [1] came to 164 µM (≈ 53 µg/mL). Also, the Papp at 1 h, 10 µM in data set [2] (MDCK) amounted to 46.4 ×10⁻⁶ cm/s.
